Assay results reported in US5990144A, “4-aminoalkoxy-1,3-dihydrobenzoimidazol-2-one dopamine autoreceptor agonists” (American Home Products Corporation, priority 1998, dated 1999).

Key:
[1] = biological target: T1, D2 (dopamine autoreceptor) (Rattus norvegicus, UniProt P61169); assay: Affinity for dopamine autoreceptor (D2 high-affinity agonist state), 3H-quinpirole binding, rat striatal brain tissue; conditions: read-out: IC50 (nM) D2 Quin.
T1 construct: homogenized rat striatal brain tissue; from tissue; host or cells: rat striatal brain tissue (homogenate)
T1 sequence (P61169 whole entry): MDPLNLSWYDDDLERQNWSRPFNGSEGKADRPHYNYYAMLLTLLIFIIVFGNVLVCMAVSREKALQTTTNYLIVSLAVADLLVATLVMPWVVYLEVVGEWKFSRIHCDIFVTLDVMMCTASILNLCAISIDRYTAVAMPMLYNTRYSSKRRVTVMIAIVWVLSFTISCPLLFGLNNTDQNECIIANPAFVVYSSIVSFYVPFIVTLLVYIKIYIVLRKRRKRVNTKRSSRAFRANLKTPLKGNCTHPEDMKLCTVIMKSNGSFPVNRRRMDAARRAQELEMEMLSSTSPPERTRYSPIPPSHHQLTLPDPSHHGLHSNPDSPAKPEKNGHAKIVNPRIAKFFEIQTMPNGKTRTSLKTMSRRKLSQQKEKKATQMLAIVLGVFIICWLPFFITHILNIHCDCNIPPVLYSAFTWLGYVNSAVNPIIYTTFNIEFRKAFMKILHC
Description: Affinity for the dopamine autoreceptor was established by a modification of the standard experimental test procedure of Seemen and Schaus, European Journal of Pharmacology 203: 105-109, 1991, wherein homogenized rat striatal brain tissue is incubated with ^3 H-quinpirole (Quin.) and various concentrations of test compound, filtered and washed and counted in a Betaplate scintillation counter.

[2] = biological target: T2, dopamine D-2 receptor (Rattus norvegicus, UniProt P61169); assay: Affinity for dopamine D-2 receptor, 3H-spiroperidol (Spiper.) binding, homogenized limbic brain tissue; conditions: read-out: IC50 (nM) D2 Spiper
T2 construct: homogenized limbic brain tissue; from tissue; host or cells: limbic brain tissue (homogenate)
T2 sequence (P61169 whole entry): as above
Description: High affinity for the dopamine D-2 receptor was established by the standard experimental test procedure of Fields, et al., Brain Res., 136, 578 (1977) and Yamamura et al., eds., Neurotransmitter Receptor Binding, Raven Press, N.Y. (1978) wherein homogenized limbic brain tissue is incubated with ^3 H-spiroperidol (Spiper.) and various concentrations of test compound, filtered and washed and shaken with Hydrofluor scintillation cocktail (National Diagnostics) and counted in a Packard 460 CD scintillation counter.

SMILES	IC50 [1]	IC50 [2]
O=c1[nH]c2cccc(OCCNCc3cccs3)c2[nH]1 [Example 7, 4-{2-[(Thiophen-2-ylmethyl)-amino]-ethoxy}-1,3-dihydro-benzoimidazol-2-one]	0.51 nM	255 nM
O=c1[nH]c2cccc(OCCNCc3cccc4ccccc34)c2[nH]1 [Example 5, 4-{2-[(Naphthalen-1-ylmethyl)-amino]-ethoxy}-1,3-dihydro-benzoimidazol-2-one]	0.6 nM	38.7 nM
O=c1[nH]c2cccc(OCCNCc3ccccc3)c2[nH]1 [Example 1, 4-(2-Benzylamino-ethoxy)-1,3-dihydro-benzoimidazol-2-one]	0.51 nM	60.6 nM
Cn1c(=O)[nH]c2cccc(OCCNCc3ccccc3)c21 [Example 3, 4(7)-(2-Benzylamino-ethoxy)-1-(3)-methyl-1,3-dihydro-benzoimidazol-2-one]	2.92 nM	1350 nM
O=c1[nH]c2cccc(OCCCNCc3ccccc3)c2[nH]1 [Example 4, 4-(3-Benzylamino-propoxy)-1,3-dihydro-benzoimidazol-2-one]	126 nM	5980 nM
CC(C)(C)c1ccc(CNCCOc2cccc3[nH]c(=O)[nH]c23)cc1 [Example 6, 4-[2-(4-tert-Butyl-benzylamino)-ethoxy]-1,3-dihydro-benzoimidazol-2-one]	0.81 nM	47.8 nM
O=c1[nH]c2cccc(OCCN3CCc4ccccc4C3)c2[nH]1 [Example 12, 4-[2-(2,3-Dihydro-1H-isoquinolin-2yl)-ethoxy]-1,3-dihydro-benzoimidazol-2-one]	12 nM	658 nM

Stronger by IC50 [1], values ahead:

IC50 [1]	IC50 [2]	SMILES
0.3 nM	99.5 nM	O=c1[nH]c2cccc(OCCNCc3ccc(Cl)cc3)c2[nH]1 [Example 8, 4-[2-(4-Chloro-benzylamino)-ethoxy]-1,3-dihydro-benzoimidazol-2-one]
0.31 nM	67 nM	O=c1[nH]c2cc(Cl)cc(OCCNCc3ccsc3)c2[nH]1 [Example 11, 6-Chloro-4-{2-[(thiophen-3-ylmethyl)-amino]-ethoxy}-1,3-dihydro-benzoimidazol-2-one]
0.29 nM	28.5 nM	Cc1ccc(CNCCOc2cccc3[nH]c(=O)[nH]c23)cc1 [Example 2, 4-[2-(4-Methyl-benzylamino)-ethoxy]-1,3-dihydro-benzoimidazol-2-one]
0.47 nM	58 nM	O=c1[nH]c2cc(Cl)cc(OCCNCc3cccs3)c2[nH]1 [Example 10, 6-Chloro-4-{2-[(thiophen-2-ylmethyl)-amino]-ethoxy}-1,3-dihydro-benzoimidazol-2-one]
0.48 nM	34.6 nM	O=c1[nH]c2cc(Cl)cc(OCCNCc3ccccc3)c2[nH]1 [Example 9, 4-(2-Benzylamino-ethoxy)-6-chloro-1,3-dihydro-benzoimidazol-2-one]
0.3 nM	30 nM	O=c1[nH]c2cccc(OCCNCCCc3ccccc3)c2[nH]1 [Example 13, 4-[2-(3-Phenyl-propylamine)-ethoxy]-1,3-dihydro-benzoimidazol-2-one]
